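Method: 48-hour compound exposure of cells in 96-well plates, five concentrations, linear interpolation of endpoints. Here, GI50 denotes the concentration required for 50% inhibition of growth.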 Calls of active or inactive are those of the source. No stated cut-off is given here; in the data, active = GI50 up to about 1.1 µM and inactive = higher.
Tests used:
Assay in all cases: growth of human tumour cells (NCI), 48 h
786-0 = system: 786-0
A498 = system: A498
A549 = system: A549
ACHN = system: ACHN
BT-549 = system: BT-549
CAKI-1 = system: CAKI-1
CCRF-CEM = system: CCRF-CEM
COLO 205 = system: COLO 205
DU-145 = system: DU-145
EKVX = system: EKVX
HCC 2998 = system: HCC 2998
HCT-116 = system: HCT-116
HCT-15 = system: HCT-15
HL-60 = system: HL-60
HOP-62 = system: HOP-62
HOP-92 = system: HOP-92
HT-29 = system: HT-29
Hs-578T = system: Hs-578T
IGROV-1 = system: IGROV-1
K562 = system: K562
KM12 = system: KM12
LOX IMVI = system: LOX IMVI
M14 = system: M14
MCF7 = system: MCF7
MDA-MB-231 = system: MDA-MB-231
MDA-MB-435 = system: MDA-MB-435
MDA-N = system: MDA-N
MOLT-4 = system: MOLT-4
NCI-H226 = system: NCI-H226
NCI-H23 = system: NCI-H23
NCI-H460 = system: NCI-H460
NCI/ADR-RES = system: NCI/ADR-RES
OVCAR-3 = system: OVCAR-3
OVCAR-4 = system: OVCAR-4
OVCAR-5 = system: OVCAR-5
OVCAR-8 = system: OVCAR-8
PC-3 = system: PC-3
RPMI-8226 = system: RPMI-8226
RXF 393 = system: RXF 393
SF-268 = system: SF-268
SF-295 = system: SF-295
SF-539 = system: SF-539
SK-MEL-28 = system: SK-MEL-28
SK-MEL-2 = system: SK-MEL-2
SK-MEL-5 = system: SK-MEL-5
SK-OV-3 = system: SK-OV-3
SN12C = system: SN12C
SNB-19 = system: SNB-19
SNB-75 = system: SNB-75
SW-620 = system: SW-620
T47D = system: T47D
TK-10 = system: TK-10
U-251 = system: U-251
UACC-257 = system: UACC-257
UACC-62 = system: UACC-62
UO-31 = system: UO-31
Malme-3M = system: Malme-3M

## CC1=CC(C2/C(=N/O)C=C(C)CC2(C)C)C(O)C(C)(C)C1 (stereo not drawn)
786-0
  GI50: 17.4 µM (inactive)
A498
  GI50: 18 µM (inactive)
A549
  GI50: 15.5 µM (inactive)
ACHN
  GI50: 18.9 µM (inactive)
BT-549
  GI50: 17.6 µM (inactive)
CAKI-1
  GI50: 15 µM (inactive)
CCRF-CEM
  GI50: 22.8 µM (inactive)
COLO 205
  GI50: 17.1 µM (inactive)
DU-145
  GI50: 15 µM (inactive)
EKVX
  GI50: 16.5 µM (inactive)
HCC 2998
  GI50: 14.1 µM (inactive)
HCT-116
  GI50: 15.7 µM (inactive)
HCT-15
  GI50: 16.3 µM
HL-60
  GI50: 16 µM (inactive)
HOP-62
  GI50: 14.9 µM (inactive)
HOP-92
  GI50: 14.1 µM (inactive)
HT-29
  GI50: 14.3 µM (inactive)
Hs-578T
  GI50: 31.8 µM (inactive)
IGROV-1
  GI50: 17.3 µM (inactive)
K562
  GI50: 14.2 µM (inactive)
KM12
  GI50: 15.9 µM (inactive)
LOX IMVI
  GI50: 16.8 µM (inactive)
M14
  GI50: 15.1 µM (inactive)
MCF7
  GI50: 15.3 µM (inactive)
MDA-MB-231
  GI50: 17.3 µM (inactive)
MDA-MB-435
  GI50: 16.4 µM (inactive)
MDA-N
  GI50: 17 µM (inactive)
MOLT-4
  GI50: 13.5 µM (inactive)
NCI-H226
  GI50: 15.8 µM (inactive)
NCI-H23
  GI50: 16.2 µM (inactive)
NCI-H460
  GI50: 21.3 µM (inactive)
NCI/ADR-RES
  GI50: 16.3 µM (inactive)
OVCAR-3
  GI50: 11.1 µM (inactive)
OVCAR-4
  GI50: 15 µM (inactive)
OVCAR-5
  GI50: 19.1 µM (inactive)
OVCAR-8
  GI50: 17.5 µM (inactive)
PC-3
  GI50: 16.1 µM (inactive)
RPMI-8226
  GI50: 14 µM (inactive)
RXF 393
  GI50: 15.3 µM (inactive)
SF-268
  GI50: 18 µM (inactive)
SF-295
  GI50: 18.6 µM (inactive)
SF-539
  GI50: 24 µM (inactive)
SK-MEL-28
  GI50: 15.7 µM (inactive)
SK-MEL-2
  GI50: 16 µM (inactive)
SK-MEL-5
  GI50: 15.1 µM (inactive)
SK-OV-3
  GI50: 17.9 µM (inactive)
SN12C
  GI50: 18.4 µM (inactive)
SNB-19
  GI50: 15.8 µM (inactive)
SNB-75
  GI50: 14.8 µM (inactive)
SW-620
  GI50: 15.7 µM (inactive)
T47D
  GI50: 12.8 µM (inactive)
TK-10
  GI50: 19.1 µM (inactive)
U-251
  GI50: 15.7 µM (inactive)
UACC-257
  GI50: 15.5 µM (inactive)
UACC-62
  GI50: 15.2 µM (inactive)
UO-31
  GI50: 15.6 µM (inactive)

## CC1(C)C2CC(=O)C1(C)C(O)C2Br (stereo not drawn)
786-0
  GI50: > 100 µM (inactive)
A498
  GI50: > 100 µM (inactive)
A549
  GI50: > 100 µM (inactive)
ACHN
  GI50: > 100 µM (inactive)
BT-549
  GI50: > 100 µM (inactive)
CCRF-CEM
  GI50: > 100 µM (inactive)
DU-145
  GI50: > 100 µM (inactive)
EKVX
  GI50: > 100 µM (inactive)
HCC 2998
  GI50: > 100 µM (inactive)
HCT-116
  GI50: > 100 µM (inactive)
HCT-15
  GI50: > 100 µM
HL-60
  GI50: > 100 µM (inactive)
HOP-62
  GI50: > 100 µM (inactive)
HOP-92
  GI50: > 100 µM (inactive)
HT-29
  GI50: > 100 µM (inactive)
Hs-578T
  GI50: 98.2 µM (inactive)
IGROV-1
  GI50: > 100 µM (inactive)
K562
  GI50: > 100 µM (inactive)
KM12
  GI50: > 100 µM (inactive)
M14
  GI50: > 100 µM (inactive)
MCF7
  GI50: > 100 µM (inactive)
MDA-MB-231
  GI50: > 100 µM (inactive)
MDA-MB-435
  GI50: > 100 µM (inactive)
MDA-N
  GI50: > 100 µM (inactive)
MOLT-4
  GI50: > 100 µM (inactive)
Malme-3M
  GI50: > 100 µM (inactive)
NCI-H226
  GI50: > 100 µM (inactive)
NCI-H23
  GI50: > 100 µM (inactive)
NCI-H460
  GI50: > 100 µM (inactive)
NCI/ADR-RES
  GI50: > 100 µM (inactive)
OVCAR-3
  GI50: > 100 µM (inactive)
OVCAR-5
  GI50: > 100 µM (inactive)
OVCAR-8
  GI50: > 100 µM (inactive)
PC-3
  GI50: > 100 µM (inactive)
RXF 393
  GI50: > 100 µM (inactive)
SF-268
  GI50: > 100 µM (inactive)
SF-295
  GI50: > 100 µM (inactive)
SF-539
  GI50: > 100 µM (inactive)
SK-MEL-28
  GI50: > 100 µM (inactive)
SK-MEL-2
  GI50: > 100 µM (inactive)
SK-MEL-5
  GI50: > 100 µM (inactive)
SK-OV-3
  GI50: > 100 µM (inactive)
SN12C
  GI50: > 100 µM (inactive)
SNB-19
  GI50: > 100 µM (inactive)
SW-620
  GI50: > 100 µM (inactive)
T47D
  GI50: > 100 µM (inactive)
TK-10
  GI50: > 100 µM (inactive)
U-251
  GI50: > 100 µM (inactive)
UACC-62
  GI50: > 100 µM (inactive)
UO-31
  GI50: > 100 µM (inactive)

## COc1ccc(/C=N/NC(=O)c2cnc3[nH]c(=O)n(C)c(=O)c3c2)cc1
786-0
  GI50: 34.4 µM (inactive)
A549
  GI50: > 100 µM (inactive)
ACHN
  GI50: 44 µM (inactive)
BT-549
  GI50: > 100 µM (inactive)
CAKI-1
  GI50: 94.8 µM (inactive)
CCRF-CEM
  GI50: > 100 µM (inactive)
COLO 205
  GI50: > 100 µM (inactive)
DU-145
  GI50: > 100 µM (inactive)
EKVX
  GI50: > 100 µM (inactive)
HCC 2998
  GI50: > 100 µM (inactive)
HCT-116
  GI50: 57.5 µM (inactive)
HCT-15
  GI50: > 100 µM
HOP-62
  GI50: 44.3 µM (inactive)
HT-29
  GI50: > 100 µM (inactive)
Hs-578T
  GI50: 39.9 µM (inactive)
IGROV-1
  GI50: 34.9 µM (inactive)
K562
  GI50: > 100 µM (inactive)
KM12
  GI50: > 100 µM (inactive)
M14
  GI50: > 100 µM (inactive)
MCF7
  GI50: > 100 µM (inactive)
MDA-MB-231
  GI50: 27 µM (inactive)
MDA-MB-435
  GI50: > 100 µM (inactive)
MDA-N
  GI50: > 100 µM (inactive)
MOLT-4
  GI50: > 100 µM (inactive)
Malme-3M
  GI50: > 100 µM (inactive)
NCI-H226
  GI50: 64.1 µM (inactive)
NCI-H23
  GI50: > 100 µM (inactive)
NCI-H460
  GI50: > 100 µM (inactive)
NCI/ADR-RES
  GI50: 97.3 µM (inactive)
OVCAR-3
  GI50: > 100 µM (inactive)
OVCAR-4
  GI50: > 100 µM (inactive)
OVCAR-5
  GI50: > 100 µM (inactive)
OVCAR-8
  GI50: 40.6 µM (inactive)
PC-3
  GI50: > 100 µM (inactive)
RPMI-8226
  GI50: > 100 µM (inactive)
RXF 393
  GI50: 38.3 µM (inactive)
SF-268
  GI50: 45.2 µM (inactive)
SF-295
  GI50: 46.3 µM (inactive)
SK-MEL-28
  GI50: > 100 µM (inactive)
SK-MEL-2
  GI50: 44.3 µM (inactive)
SK-MEL-5
  GI50: > 100 µM (inactive)
SK-OV-3
  GI50: 59.2 µM (inactive)
SN12C
  GI50: 88.3 µM (inactive)
SNB-19
  GI50: 34.1 µM (inactive)
SNB-75
  GI50: 13.1 µM (inactive)
SW-620
  GI50: > 100 µM (inactive)
T47D
  GI50: > 100 µM (inactive)
TK-10
  GI50: 46.5 µM (inactive)
U-251
  GI50: 36.7 µM (inactive)
UACC-257
  GI50: > 100 µM (inactive)
UACC-62
  GI50: 80.2 µM (inactive)
UO-31
  GI50: > 100 µM (inactive)

— ChEMBL document CHEMBL1201862, “PubChem BioAssay data set” (2004)
